For 1 compound, IC50 results are on record in publication PMC11742003, “Co-expression of the RPS6KB1 and PDPK1 genes for production of activated p70S6K1 using bac-to-bac baculovirus expression system” (Molecular Biology Reports, 2025).

The target of the assay is T1, p70S6K1 (His-actS6K1; Ribosomal protein S6 kinase 1) (Homo sapiens, UniProt P23443, T412D).
T1 construct: gene RPS6KB1; 6xHis-tagged S6K1 residues 3-398 (ΔAID), phosphorylated at T229 by co-expressed PDPK1(ΔPH)
The assay is described as follows: AlphaScreen kinase assay with biotinylated rpS6 peptide, […] ATP, purified enzyme. Format: biochemical.

T1 sequence (P23443 26-421 T412D): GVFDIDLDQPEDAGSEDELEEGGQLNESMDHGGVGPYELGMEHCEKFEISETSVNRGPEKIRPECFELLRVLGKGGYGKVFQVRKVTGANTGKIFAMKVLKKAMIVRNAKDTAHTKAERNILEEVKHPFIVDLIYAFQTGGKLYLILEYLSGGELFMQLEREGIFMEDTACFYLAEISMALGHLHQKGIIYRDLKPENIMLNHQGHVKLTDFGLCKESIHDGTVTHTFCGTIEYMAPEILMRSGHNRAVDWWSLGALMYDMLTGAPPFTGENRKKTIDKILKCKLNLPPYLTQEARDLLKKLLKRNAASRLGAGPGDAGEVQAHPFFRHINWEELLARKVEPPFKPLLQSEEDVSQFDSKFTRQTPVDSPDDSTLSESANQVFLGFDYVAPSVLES

As for `Cn1cc(-c2ccc(F)c(C(F)(F)F)c2)nc1C1CCN(c2ncnc3[nH]ncc23)CC1` [LY2584702], inhibition was half-maximal at 4.2 nM (IC50).
